From patent publication US20250295680A1, “NOVEL DUTOGLIPTIN FORMULATIONS AND THEIR PREPARATION” (Recardio Inc., priority 2022, published 2025)

Experiment: Solubility of fatty acid sodium salts and salt precipitation/anion exchange with Dutogliptin tartrate
Assay type: physicochemical
Details: for Solubility 2-8° C. / Solubility 25° C.: volume for the stated amount of substance (0.41 mmol Dutogliptin tartrate, 0.83 mmol fatty acid salts); for Precipitation after addition of Dutogliptin tartrate solution: 100 mg/ml Dutogliptin tartrate solution, 2-8° C.
Protocol: Assuming that the ion lattice of Dutogliptin tartrate (dissolved in water) is pulled apart so that the individual Dutogliptin and tartrate ions are in solution, an exchange should take place by adding excess fatty acid anions. The resulting hydrophobic salt should form and precipitate due to reduced solubility.
To promote the exchange, the salts, which were dissolved at room temperature, were cooled to 2-8° C. after the addition of Dutogliptin tartrate and stirred overnight.
Five different physiologic fatty acids (as sodium salts) were prepared by anion exchange of the tartrates with a double molar addition of the salts at a reduced temperature (reduced Dutogliptin tartrate solubility).

[1] = listed as sodium cholate, hydrate

SMILES	Solubility 2-8° C.	Solubility 25° C.	Precipitation after addition of Dutogliptin tartrate solution (hydrate)	Precipitation after addition of Dutogliptin tartrate solution [1]	Solubility 2-8° C. (hydrate)	Solubility 2-8° C. [1]
CCCCCCCCCCCC(=O)[O-].[Na+] [Sodium Laurate]	not soluble	10 mL				
CCCCCCCCCCCCCC(=O)[O-].[Na+] [Sodium Myristate]	not soluble	>10 mL				
C[C@H](CCC(=O)[O-])[C@H]1CC[C@H]2[C@@H]3[C@H](O)C[C@@H]4C[C@H](O)CC[C@]4(C)[C@H]3C[C@H](O)[C@]12C.O.[Na+] [Sodium cholate hydrate]		5 mL	no precipitation	no visual evidence of turbidity or precipitation	5 mL, clear	remained sufficient soluble
